Key:
human TRPC6 = target: T1, human TRPC6 (Homo sapiens, UniProt Q9Y210); experiment: TRPC6 fluorescence-based assay (Ca2+ flux assay in FLIPR format), cells overexpressing TRPC6; type: cell-based; details: 5 μM of test compound, following Carbachol stimulation
T1 construct: expressed in transfected cells; host or cells: HEK 293
T1 sequence (Q9Y210 1-931): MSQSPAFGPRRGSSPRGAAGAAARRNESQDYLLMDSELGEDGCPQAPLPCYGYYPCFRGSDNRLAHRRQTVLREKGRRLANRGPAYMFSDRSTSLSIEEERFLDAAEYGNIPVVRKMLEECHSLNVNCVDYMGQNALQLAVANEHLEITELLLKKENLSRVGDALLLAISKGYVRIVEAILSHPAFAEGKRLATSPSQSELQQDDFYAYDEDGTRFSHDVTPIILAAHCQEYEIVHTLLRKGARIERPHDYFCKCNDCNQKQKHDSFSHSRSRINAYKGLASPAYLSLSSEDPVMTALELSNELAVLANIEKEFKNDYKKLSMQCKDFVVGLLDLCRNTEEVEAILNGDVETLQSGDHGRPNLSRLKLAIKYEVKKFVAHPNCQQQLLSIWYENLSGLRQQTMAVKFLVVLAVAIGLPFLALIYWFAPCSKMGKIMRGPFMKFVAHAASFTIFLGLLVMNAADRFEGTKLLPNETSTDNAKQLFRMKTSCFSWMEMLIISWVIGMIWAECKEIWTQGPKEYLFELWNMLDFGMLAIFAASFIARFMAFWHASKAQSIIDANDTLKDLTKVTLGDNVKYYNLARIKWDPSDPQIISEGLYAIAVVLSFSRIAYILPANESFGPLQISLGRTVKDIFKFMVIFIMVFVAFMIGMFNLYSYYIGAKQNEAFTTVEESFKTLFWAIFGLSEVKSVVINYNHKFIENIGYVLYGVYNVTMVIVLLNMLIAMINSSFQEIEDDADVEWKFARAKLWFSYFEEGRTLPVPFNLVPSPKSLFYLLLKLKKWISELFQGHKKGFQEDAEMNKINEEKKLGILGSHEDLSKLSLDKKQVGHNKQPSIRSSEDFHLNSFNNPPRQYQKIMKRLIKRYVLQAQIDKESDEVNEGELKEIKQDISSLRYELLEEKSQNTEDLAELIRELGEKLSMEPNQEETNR

human TRPC5 = target: T2, human TRPC5 (Homo sapiens, UniProt Q9UL62); experiment: TRPC5 fluorescence-based assay (Ca2+ flux assay in FLIPR format), cells overexpressing TRPC5; type: cell-based; details: 5 μM of test compound, following Carbachol stimulation
T2 construct: expressed in transfected cells; host or cells: HEK 293
T2 sequence (Q9UL62 1-973): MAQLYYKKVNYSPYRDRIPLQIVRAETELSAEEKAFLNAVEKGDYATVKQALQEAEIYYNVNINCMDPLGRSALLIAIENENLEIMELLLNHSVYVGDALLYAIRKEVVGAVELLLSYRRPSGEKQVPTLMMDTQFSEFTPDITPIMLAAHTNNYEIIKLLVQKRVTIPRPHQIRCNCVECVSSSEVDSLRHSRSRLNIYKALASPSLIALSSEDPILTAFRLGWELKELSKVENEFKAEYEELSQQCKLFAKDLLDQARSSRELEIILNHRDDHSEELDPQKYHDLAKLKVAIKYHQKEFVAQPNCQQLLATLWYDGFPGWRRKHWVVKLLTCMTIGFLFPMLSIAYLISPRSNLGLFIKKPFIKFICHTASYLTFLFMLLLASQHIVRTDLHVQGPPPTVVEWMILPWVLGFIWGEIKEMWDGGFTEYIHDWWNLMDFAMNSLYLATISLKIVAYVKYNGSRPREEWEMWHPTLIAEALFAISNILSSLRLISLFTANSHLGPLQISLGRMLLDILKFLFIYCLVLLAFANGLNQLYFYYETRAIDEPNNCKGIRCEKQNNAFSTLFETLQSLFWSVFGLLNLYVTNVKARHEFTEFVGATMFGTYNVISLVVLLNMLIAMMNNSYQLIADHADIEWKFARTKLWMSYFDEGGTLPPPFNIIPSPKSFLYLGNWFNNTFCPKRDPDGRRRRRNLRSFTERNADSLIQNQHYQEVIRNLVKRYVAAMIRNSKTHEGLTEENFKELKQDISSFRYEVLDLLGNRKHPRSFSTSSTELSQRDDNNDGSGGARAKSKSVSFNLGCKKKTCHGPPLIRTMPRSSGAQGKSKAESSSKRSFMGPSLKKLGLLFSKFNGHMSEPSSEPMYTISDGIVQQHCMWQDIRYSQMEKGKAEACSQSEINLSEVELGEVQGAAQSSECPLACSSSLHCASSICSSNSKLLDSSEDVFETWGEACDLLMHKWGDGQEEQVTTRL

Row | inhibition at 5 µM (human TRPC6) | inhibition at 5 µM (human TRPC5) | Structure (SMILES)
1 | 81.8% | 32.1% | Cc1ccc(NC(=O)Cn2c(C)nc3ccccc32)cc1
2 | 28.4% | 58.2% | O=C(Cn1c(NCCCO)nc2ccccc21)C12CC3CC(CC(C3)C1)C2
3 | 60.7% | 60% | Cn1c(=O)c2c(ncn2CC(=O)OCCCC(c2ccc(F)cc2)c2ccc(F)cc2)n(C)c1=O
4 | 58.5% | 44.9% | COc1ccc(NCc2nc3ccccc3n2CCOc2ccccc2C)cc1
5 | 3.16% | 51.8% | CCn1c(NCc2cc(C)ccc2O)nc2ccccc21
6 | 45% | 51% | COc1ccc(Cc2nc3ccccc3n2C(C)c2ccccc2)cc1 (centres unmarked)
7 | -7.07% | 38.9% | CC(C)(C)C(=O)NCCc1nc2ccccc2n1Cc1ccc(Cl)cc1
8 | 53.7% | 49.9% | Nc1nc2ccccc2n1CCOc1ccccc1Cl
9 | 14.5% | 35.7% | CC(C)n1c(Nc2ccccc2)nc2ccccc21
10 | 45.3% | 35.5% | Cc1ccccc1Cn1c(C2CC2)nc2ccccc21
11 | 21.9% | 63.4% | CCN(CC)CCn1c(NCc2ccccc2OC)nc2ccccc21
12 | 83.5% | 61.3% | COCc1ccccc1Cn1cnc2ccccc21
13 | 82.8% | 61.4% | CCCn1c(-c2ccc(Br)cc2)nc2ccccc21
14 | 69.8% | 62.9% | CCN(CC)CCn1c(NCc2cccc(Br)c2)nc2ccccc21
15 | 68.9% | 63.3% | COc1ccc(CCN2CCC(Nc3nc4ccccc4n3CCc3ccc(OC)cc3)CC2)cc1
16 | 66.1% | 37.5% | CCOc1ccc(NCc2nc3ccccc3n2CCOc2ccccc2C)cc1
17 | 27.7% | 66.8% | Cn1c(NCc2c[nH]c3ccccc23)nc2ccccc21
18 | -9.99% | 42.3% | Cn1c(CC(O)c2ccccc2)nc2ccccc21 (centres unmarked)
19 | 52.9% | 56.4% | Cc1cccc(OCCn2c(Cc3ccccc3)nc3ccccc32)c1
